Experimental data published in ChEMBL document CHEMBL1201862, “PubChem BioAssay data set” (2004).
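The compound was tested at five concentrations on cells cultured in 96-well plates, with a 48-hour exposure period. At the GI50, growth is halved.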 Active and inactive are the calls of the source. No stated cut-off is given here; in the data, active = GI50 up to about 1.1 µM and inactive = higher.

What was measured:
Assay in all cases: growth of human tumour cells (NCI), 48 h
A549 = tested on: A549
CCRF-CEM = tested on: CCRF-CEM
HCC 2998 = tested on: HCC 2998
HCT-116 = tested on: HCT-116
IGROV-1 = tested on: IGROV-1
LOX IMVI = tested on: LOX IMVI
M14 = tested on: M14
Malme-3M = tested on: Malme-3M
NCI-H460 = tested on: NCI-H460
OVCAR-3 = tested on: OVCAR-3
RPMI-8226 = tested on: RPMI-8226
SF-295 = tested on: SF-295
UACC-257 = tested on: UACC-257
NCI-H23 = tested on: NCI-H23
SK-MEL-2 = tested on: SK-MEL-2

Measured: GI50

CC(C)CCCC(C)[C@H]1CCC2[C@H]3C(CC[C@@]21C)[C@@]1(C)CCC=C[C@]12C[C@@H]2[C@@H]3O (stereo partly specified)
inactive: A549 > 100 µM | CCRF-CEM > 100 µM | HCC 2998 > 100 µM | HCT-116 > 100 µM | IGROV-1 > 100 µM | LOX IMVI > 100 µM | M14 > 100 µM | Malme-3M > 100 µM | NCI-H460 > 100 µM | OVCAR-3 > 100 µM | RPMI-8226 > 100 µM | SF-295 > 100 µM | UACC-257 > 100 µM

CC(=O)Nc1ccc(/C=c2\sc3nnc(/C=C/c4ccccc4)n3c2=O)cc1
inactive: A549 > 50 µM | CCRF-CEM > 50 µM | HCC 2998 > 50 µM | HCT-116 > 50 µM | IGROV-1 > 50 µM | LOX IMVI > 50 µM | M14 > 50 µM | Malme-3M > 50 µM | NCI-H23 > 50 µM | NCI-H460 > 50 µM | OVCAR-3 > 50 µM | RPMI-8226 > 50 µM | SF-295 > 50 µM | SK-MEL-2 > 50 µM | UACC-257 > 50 µM

CC(NC(=O)c1ccccc1)C(=O)N(Cc1ccccc1)Cc1ccccc1 (stereo unspecified)
inactive: A549 30.2 µM | CCRF-CEM 21.6 µM | HCC 2998 35.6 µM | HCT-116 25.2 µM | IGROV-1 34 µM | LOX IMVI 22.1 µM | M14 21 µM | Malme-3M 24.5 µM | NCI-H23 24.5 µM | NCI-H460 27.4 µM | RPMI-8226 21 µM | SF-295 27.4 µM | SK-MEL-2 20.7 µM | UACC-257 40.2 µM

CC(C)(C)CC(C)(C)c1cc2c(O)c(c1)Cc1cc(C(C)(C)CC(C)(C)C)cc(c1O)Cc1cc(C(C)(C)CC(C)(C)C)cc(c1O)Cc1cc(C(C)(C)CC(C)(C)C)cc(c1O)C2
inactive: A549 > 100 µM | CCRF-CEM > 100 µM | HCC 2998 > 100 µM | HCT-116 > 100 µM | IGROV-1 > 100 µM | M14 > 100 µM | Malme-3M > 100 µM | NCI-H23 > 100 µM | NCI-H460 > 100 µM | OVCAR-3 > 100 µM | RPMI-8226 > 100 µM | SF-295 > 100 µM | SK-MEL-2 > 100 µM | UACC-257 > 100 µM

CC(=O)Nc1ccc(C2=N/C(=C\c3ccc(Cl)cc3)C(=O)O2)cc1
inactive: A549 > 100 µM | CCRF-CEM 26.7 µM | HCC 2998 20 µM | HCT-116 36 µM | IGROV-1 > 100 µM | LOX IMVI 18.4 µM | M14 25.5 µM | Malme-3M 87.7 µM | NCI-H23 36.4 µM | NCI-H460 69.5 µM | OVCAR-3 27.8 µM | RPMI-8226 40.2 µM | SF-295 > 100 µM | SK-MEL-2 > 100 µM | UACC-257 45.7 µM

O=C1OC(=O)c2c1nc1ccccc1c2-c1ccccc1
inactive: A549 > 100 µM | CCRF-CEM > 100 µM | HCC 2998 > 100 µM | HCT-116 > 100 µM | IGROV-1 > 100 µM | LOX IMVI > 100 µM | M14 > 100 µM | Malme-3M > 100 µM | NCI-H460 > 100 µM | RPMI-8226 > 100 µM | SF-295 > 100 µM | SK-MEL-2 > 100 µM | UACC-257 > 100 µM

COc1ccc(NCc2cc(OC)cc(OC)c2)cc1
inactive: A549 17.6 µM | CCRF-CEM 25.2 µM | HCC 2998 12.1 µM | HCT-116 15.6 µM | IGROV-1 22.5 µM | LOX IMVI 25.2 µM | M14 22.2 µM | Malme-3M 40.4 µM | NCI-H23 26.3 µM | NCI-H460 20.1 µM | OVCAR-3 11.9 µM | RPMI-8226 17 µM | SF-295 20.8 µM | SK-MEL-2 7 µM | UACC-257 40.6 µM

Cc1cc(Br)cc(C)c1NC(=O)C(=O)CC(=O)c1sc(-n2nc(-c3ccccc3)cc2-c2ccccc2)nc1C
inactive: A549 > 100 µM | CCRF-CEM > 100 µM | HCC 2998 > 100 µM | HCT-116 > 100 µM | IGROV-1 > 100 µM | LOX IMVI > 100 µM | M14 > 100 µM | Malme-3M > 100 µM | NCI-H23 > 100 µM | NCI-H460 > 100 µM | OVCAR-3 > 100 µM | RPMI-8226 > 100 µM | SF-295 > 100 µM | UACC-257 > 100 µM

COC(=O)CC1NC(=O)C1C1(C)OCCO1 (stereo unspecified)
inactive: A549 > 100 µM | HCC 2998 > 100 µM | HCT-116 > 100 µM | IGROV-1 > 100 µM | LOX IMVI > 100 µM | M14 > 100 µM | Malme-3M > 100 µM | NCI-H23 > 100 µM | NCI-H460 > 100 µM | OVCAR-3 > 100 µM | RPMI-8226 > 100 µM | SF-295 > 100 µM | SK-MEL-2 > 100 µM | UACC-257 > 100 µM

O=C1OC(Cl)C(N=P(c2ccccc2)(c2ccccc2)c2ccccc2)=C1Cl (stereo unspecified)
inactive: A549 > 100 µM | CCRF-CEM > 100 µM | HCC 2998 > 100 µM | HCT-116 > 100 µM | IGROV-1 > 100 µM | LOX IMVI > 100 µM | M14 > 100 µM | Malme-3M > 100 µM | NCI-H23 > 100 µM | OVCAR-3 > 100 µM | RPMI-8226 > 100 µM | SF-295 > 100 µM | SK-MEL-2 > 100 µM | UACC-257 > 100 µM

C=C1CC[C@@H]2C(C)(C)C(O)CCC2(C)C1COc1ccc2ccc(=O)oc2c1 (stereo partly specified)
inactive: A549 17.2 µM | CCRF-CEM 13.4 µM | HCC 2998 19.9 µM | HCT-116 15.5 µM | IGROV-1 18.9 µM | LOX IMVI 16.8 µM | M14 18.6 µM | Malme-3M 18.1 µM | NCI-H23 18.6 µM | NCI-H460 10.5 µM | OVCAR-3 17.9 µM | RPMI-8226 12.4 µM | SF-295 16.2 µM | SK-MEL-2 17.4 µM | UACC-257 18.6 µM

CS(=O)(=O)OC1CCC2(C#N)CCC1C2=O (stereo unspecified)
inactive: A549 > 100 µM | CCRF-CEM > 100 µM | HCC 2998 46.1 µM | HCT-116 > 100 µM | IGROV-1 > 100 µM | LOX IMVI > 100 µM | M14 71.3 µM | Malme-3M > 100 µM | NCI-H23 > 100 µM | NCI-H460 95.3 µM | OVCAR-3 > 100 µM | RPMI-8226 21.9 µM | SF-295 > 100 µM | SK-MEL-2 > 100 µM | UACC-257 > 100 µM

CC(C)[Si](OCC1CC(C#N)OC(C)(C)O1)(C(C)C)C(C)C (stereo unspecified)
inactive: A549 30.8 µM | CCRF-CEM 19.5 µM | HCC 2998 21.2 µM | HCT-116 16.5 µM | IGROV-1 28.2 µM | LOX IMVI 19.3 µM | M14 20 µM | Malme-3M 22.9 µM | NCI-H23 19.3 µM | NCI-H460 16.5 µM | OVCAR-3 15.6 µM | RPMI-8226 14.2 µM | SF-295 14.9 µM | SK-MEL-2 16.2 µM | UACC-257 17.3 µM
